In brackets after ≈: the same amount, converted by molar mass. Where two headings read alike, the source gives them in different places.
Key:
B16-F1 = assay: SRB cell growth inhibition (cytotoxicity) assay; type: cell-based, mouse
Excerpt: (§1) The only compounds which belong to the invention are the ones falling under the scope of formula (XI).

A375 = assay: SRB cell growth inhibition (cytotoxicity) assay; type: cell-based, human
WM-164 = assay: SRB cell growth inhibition (cytotoxicity) assay; type: cell-based, human; details: Homo sapiens
PC-3 = assay: cells
Excerpt: as §1
Cells were stained with SRB solution.
Cells. […] Cells between the third and fifth passages were used for experiments.
Cell growth inhibition studies. […] Cells were stained with sulphorhodamine B (SRB) solution.

OVCAR-8 = assay: SRB growth inhibition, MDR model parent line; type: cell-based, human
Bovine brain tubulin = assay: In vitro tubulin polymerization assay; type: biochemical; details: 10 µM
Excerpt: (§2) In Vitro Tubulin Polymerization Assay.
as §2
In vitro microtubule polymerization assay.

[1] = test system: tubulin (colchicine, vinblastine and paclitaxel binding sites); assay: MS competitive binding assay
Excerpt: MS competition binding assay. […] Each reaction was run in triplicate.

[2] = test system: A375 human melanoma xenograft; assay: In vivo antitumor efficacy, A375 melanoma xenograft; set-up: species or system mouse
Description: DTIC at 60 mg/kg was used as a positive control again.
(§3) PC-3 and A375 tumor xenograft studies.
(§4) In vivo antitumor activity [tumor growth inhibition (% T/C), tumor growth delay (T-C value), and tumor cell kill (total log cell kill)].

[3] = test system: PC-3 prostate tumor xenograft; assay: In vivo antitumor efficacy, PC-3 xenograft; set-up: species or system mouse; details: for Tumor volume by day 21: control 680 mm^3; for % T/C: Prostate (PC-3) xenograft, 21 days
Excerpt: as §3, §4

PC-3 cells = assay: In vivo drug resistance study (cells dissociated from PC-3 xenografts); type: cell-based; details: Homo sapiens
[4] = for CL (mL/min/kg), systemic clearance / Vss (L/kg), volume of distribution: […] (1h, 2r), 5 mg/kg (5Ha, 5Hc)
DU 145 [5] = assay: cells; details: Homo sapiens, DU-145, 96 h
LNCaP [6] = assay: cells; details: Homo sapiens, 96 h, read-out: IC50 ± SEM (nM), LNCaP
PPC-1 [7] = assay: cells; details: Homo sapiens, PPC-1, 96 h, read-out: IC50 ± SEM (nM), PPC-1
in vivo [8] = details: mouse, ip
[9] = Rotarod test (in vivo neurotoxicity); details: mouse
NCI/ADR-RES = assay: SRB growth inhibition, P-gp over-expressing MDR line; type: cell-based, human; details: for Resistance factor: 5760 min
[10] = test system: melanoma cell lines (A375, WM-164, B16-F1) and prostate cancer cell lines (LNCaP, DU 145, PC-3, PPC-1); assay: SRB cytotoxicity, melanoma and prostate cell panel (averages); type: cell-based; details: Prostate cell
Excerpt: as §1

[11] = 90 min
in vivo [12] = details: rat, plasma, po, 10 mg/kg
MDA-MB-435 = assay: SRB growth inhibition, sensitive parent melanoma line; type: cell-based; details: Homo sapiens, MDA-MB-435, read-out: IC50 ± SEM (nM) (n=3), MDA-MB-435; sensitive parent melanoma cell line
MDA-MB-435/LCC6MDR1 = assay: SRB growth inhibition, multidrug-resistant melanoma line; type: cell-based; details: MDA-MB-435/LCC6 MDR1, read-out: IC50 ± SEM (nM) (n=3), MDA-MB-435/LCC6MDR1; multidrug-resistant melanoma cell line
in vivo [13] = details: mouse, po, 20 mg/kg
PC-3/TxR tumors = details: PC-3/TxR xenograft, IV 20mpk, day 1 and 9
DU 145 [14] = details: read-out: IC50 ± SEM (nM) Dn-145; Table 21, Prostate, n = 3
LNCaP [15] = details: read-out: IC50 ± SEM (nM) LNCaP; Table 21, Prostate, n = 3
PPC-1 [16] = details: read-out: IC50 ± SEM (nM) PPC-1; Table 21, Prostate, n = 3
[17] = Homo sapiens, PC-3, 96 h, read-out: IC50 ± SEM (nM), PC-3
[18] = Mus musculus, B16-F1, read-out: IC50 ± SEM (nM) (n=3), B16-F1, Table 14A
[19] = Mus musculus, B16-F1 melanoma cells, 48 h, SRB, read-out: IC50 ± SEM (nM) B16-F1
[20] = Homo sapiens, A-375, read-out: IC50 ± SEM (nM) (n=3), A375, Table 14A
[21] = Homo sapiens, A-375, A375 melanoma cells, 48 h, SRB, read-out: IC50 ± SEM (nM) A375
[22] = read-out: IC50 ± SEM (nM) Du 145
[23] = Table 21, Melanoma, n = 3, read-out: IC50 ± SEM (nM) B16-F1
[24] = Table 21, Melanoma, n = 3, read-out: IC50 ± SEM (nM) A375
[25] = read-out: IC50 ± SEM (nM) PC-3, Table 21, Prostate, n = 3
[26] = Table 21, Ovarian, n = 3, read-out: IC50 ± SEM (nM) OVCAR-8

COc1cc(C(=O)c2csc(-c3ccccc3)n2)cc(OC)c1OC [1h, (2-Phenyl-thiazol-4-yl)-(3,4,5-trimethoxy-phenyl)-methanone]
IC50 (B16-F1; Mus musculus, B16-F1, SRB assay, Tables 1, 2, 3, 5B, 5C, read-out: IC50 ± SEM (nM), B16-F1): 55 ± 5 nM
IC50 (A375; Homo sapiens, A-375, 96 h, SRB assay, 96 h, Tables 1, 2, 3, 5B, 5C, read-out: IC50 ± SEM (nM), A375): 28 ± 5 nM
IC50 (WM-164; WM164, 96 h, SRB assay, 96 h, Table 2, read-out: IC50 ± SEM (nM), WM-164): 64 ± 4 nM
IC50 (PC-3; [17]): 21 ± 1 nM
IC50 (OVCAR-8; Homo sapiens, OVCAR-8, Table 5A, read-out: IC50 (nM), OVCAR-8): 35 ± 2 nM
inhibited tubulin polymerization (Bovine brain tubulin; 15 min, Figure 28B): 90%
tubulin polymerization inhibited (Bovine brain tubulin; 20 min incubation, compared to vehicle): 47%
competition for tubulin binding sites [1]: specifically competed with colchicine binding to tubulin
% T/C ([2]; A375, 1h 20 mg/kg, 2k 15 mg/kg i.p.): 28%
tumor volume ([2]; A375, nude mice, 1h 20 mg/kg, 2k 15 mg/kg i.p., 34 days, control 2183 mm^3): 775 mm^3
Tumor volume by day 21 ([3]; PC-3, 5 mg/kg i.p.): 370 mm^3
Tumor volume by day 21 ([3]; PC-3, 15 mg/kg i.p.): 176 mm^3
IC50 (PC-3 cells; PC-3, PC-3 cells from ATCC): 29.1 ± 1.1 nM
IC50 (PC-3 cells; PC-3, dissociated cells from 1h treated tumors (15 mg/kg, 21 days)): 30.4 ± 0.5 nM
IC50 (PC-3 cells; PC-3, dissociated cells from vehicle treated tumors): 29.1 ± 0.8 nM
RatPK_IV5mgk_Cl ([4]; rat, IV, 2.5mpk): 7.7 (2.5mpk) mL/min/kg
CL (mL/min/kg), systemic clearance ([4]; rat, IV): 7.7 ± 1.0 mL/min/kg
Vss (L/kg), volume of distribution ([4]; rat, IV): 4.9 ± 1.9 L/kg
volume of distribution ([4]; rats, […] iv): 7.6 L/kg
clearance ([4]; rats, […] iv, Table 22): 6 mL/min/kg
IC50 (DU 145 [5]; read-out: IC50 ± SEM (nM), DU 145): 71 ± 4 nM
IC50 (LNCaP [6]): 28 ± 4 nM
IC50 (PPC-1 [7]): 43 ± 5 nM
MTD at 96 h (in vivo [8]): ≥ 30 mg/kg
time on the rotating rod versus vehicle group [9]: no significant difference

COc1cc(C(=O)c2csc(-c3ccc(CN)cc3)n2)cc(OC)c1OC.Cl [2r, (2-(4-(Aminomethyl)phenyl)thiazol-4-yl)(3,4,5-trimethoxyphenyl)methanone hydrochloride]
Resistance factor (NCI/ADR-RES; NCI/ADR-RES vs OVCAR-8): 0.4
IC50 ([10]; read-out: IC50 range over tested melanoma and prostate cell lines): 13 to 80 nM
solubility in PBS ([11]; PBS pH 7.4, Figure 18): over 35 µg/mL
CL (mL/min/kg), systemic clearance ([4]; rat, IV): 22 ± 13 mL/min/kg
Vss (L/kg), volume of distribution ([4]; rat, IV): 0.33 ± 025 L/kg
bioavailability (in vivo [12]): 0.2%

COc1ccc(-c2nc(C(=O)c3ccc(F)cc3)cn2S(=O)(=O)c2ccccc2)cc1 [11cb, (4-fluorophenyl)(2-(4-methoxyphenyl)-1-(phenylsulfonyl)-1H-imidazol-4-yl)methanone]
IC50 (B16-F1; [18]): 71 ± 8 nM
IC50 (B16-F1; [19]): 71 ± 8 nM
IC50 (A375; [20]): 36 ± 5 nM
IC50 (A375; [21]): 36 ± 5 nM
IC50 (PC-3; [17]): 33 ± 2 nM
IC50 (MDA-MB-435): 38 nM
IC50 (MDA-MB-435/LCC6MDR1): 30 nM
IC50 ([10]; read-out: IC50 (average over cell lines)): 43 nM
IC50 (DU 145 [5]; [22]): 52 ± 3 nM
IC50 (LNCaP [6]): 31 ± 2 nM
IC50 (PPC-1 [7]): 32 ± 0.7 nM

O=C(c1ccc(F)cc1)c1cn(S(=O)(=O)c2ccccc2)c(-c2ccc(Cl)cc2)n1 [11fb, (2-(4-chlorophenyl)-1-(phenylsulfonyl)-1H-imidazol-4-yl)(4-fluorophenyl)methanone]
IC50 (B16-F1; [18]): 107 ± 12 nM
IC50 (B16-F1; [19]): 107 ± 12 nM
IC50 (A375; [20]): 88 ± 9 nM
IC50 (A375; [21]): 88 ± 9 nM
IC50 (WM-164; WM164, read-out: IC50 ± SEM (nM) (n=3), WM-164, Table 14A): 74 ± 8 nM
IC50 (WM-164; WM164 melanoma cells, 48 h, SRB, read-out: IC50 ± SEM (nM) WM164): 70 ± 6 nM
IC50 (PC-3; [17]): 76 ± 2 nM
IC50 (MDA-MB-435): 50 nM
IC50 (MDA-MB-435/LCC6MDR1): 35 nM
IC50 (DU 145 [5]; [22]): 64 ± 1 nM
IC50 (LNCaP [6]): 48 ± 1 nM
IC50 (PPC-1 [7]): 54 ± 1 nM

COc1cc(C(=O)c2c[nH]c(-c3ccc(Cl)cc3)n2)cc(OC)c1OC [12fa, (2-(4-Chlorophenyl)-1H-imidazol-4-yl)(3,4,5-trimethoxyphenyl)methanone]
IC50 (PC-3; [17]): 35 ± 1 nM
IC50 (OVCAR-8; Homo sapiens, OVCAR-8 cells, read-out: IC50 ± SEM (nM) OVCAR-8): 47 nM
Solubility ([11]; aqueous solubility): 12 µg/mL (≈ 32.2 µM)
IC50 (DU 145 [5]; [22]): 36 ± 0.4 nM
IC50 (LNCaP [6]): 24 ± 1 nM
IC50 (PPC-1 [7]): 26 ± 0.2 nM
AUC (in vivo [12]): 3630 ng·h/mL
Cmax (in vivo [12]): 1110 ng/mL
AUC (in vivo [13]): 3350 ng·h/mL
Cmax (in vivo [13]): 2590 ng/mL

CC(=O)O[C@@]12CO[C@@H]1C[C@H](O)[C@@]1(C)C(=O)[C@H](O)C3=C(C)[C@@H](OC(=O)[C@H](O)[C@@H](NC(=O)OC(C)(C)C)c4ccccc4)C[C@@](O)([C@@H](OC(=O)c4ccccc4)[C@H]21)C3(C)C [Dooetaxel]
TGI (%) (PC-3/TxR tumors; end point day 19): 56%
Tumor size (mm^3) End (PC-3/TxR tumors; end point day 19): 999 ± 905 mm^3
Tumor size (mm^3) Start (PC-3/TxR tumors; start): 170 ± 86 mm^3

COc1cc(C(=O)c2csc(-c3ccccc3)n2)cc(OC)c1OC [SMART-H]
IC50 (B16-F1; [23]): 55 ± 5 nM
IC50 (A375; [24]): 28 ± 5 nM
IC50 (PC-3; [25]): 21 ± 1 nM
IC50 (OVCAR-8; [26]): 35 ± 2 nM
Median time to reach 600 mm^3. ([2]; Melanoma (A375) xenograft, 20 mg/kg i.p.): 28 days
% T/C ([2]; Melanoma (A375) xenograft, 20 mg/kg i.p., 34 days): 30%
% T/C ([3]; 5 mg/kg i.p.): 29%
% T/C ([3]; 15 mg/kg i.p.): 4%
IC50 (DU 145 [14]): 71 ± 4 nM
IC50 (LNCaP [15]): 28 ± 4 nM
IC50 (PPC-1 [16]): 43 ± 5 nM

COc1cc(C(=O)c2csc(-c3ccc(O)cc3)n2)cc(OC)c1OC [SMART-OH]
IC50 (B16-F1; [23]): 113 ± 6 nM
IC50 (A375; [24]): 93 ± 11 nM
IC50 (PC-3; [25]): 87 ± 5 nM
IC50 (OVCAR-8; [26]): 110 ± 8 nM
Resistance factor (NCI/ADR-RES; NCI/ADR-RES relative to parent OVCAR-8): 0.4
IC50 (NCI/ADR-RES; Table 21, Ovarian, n = 3, read-out: IC50 ± SEM (nM) NCI/ADR-RES): 45 ± 5 nM
% T/C ([3]; 50 mg/kg i.p.): 34%
IC50 (DU 145 [14]): 116 ± 14 nM
IC50 (LNCaP [15]): 103 ± 9 nM
IC50 (PPC-1 [16]): 76 ± 2 nM

Reference: EP2608671B1, “COMPOUNDS FOR TREATMENT OF CANCER” (Gtx, Inc., priority 2010, dated 2012)
